Reference: patent US20210107874A1, “PHARMACEUTICAL FORMULATION OF CROTONYLAMINOPYRIDINE SALT” (priority 2017, published 2021)
Several values for one entry are separate records, joined by “and”; a condition that tells them apart may be missing. Equal values may be shown once. Read-outs that look alike come from different tables or passages of the source.

Test: PK studies of formulations, plasma by HPLC-MS/MS
Format: in vivo
Details: Cattle
Method: The following formulations were prepared and administered to animals. Blood samples were collected at pre-defined time points and the amount of compound present in plasma at the time of sampling was determined by HPLC-MS/MS. Pharmacokinetic parameters were then calculated: Cmax, Tmax, Tlast, AUC. [table]

[1] = Form O62.5 (FormO type: L-tartaric acid, NaOH to pH 4.4, water), SC, 1.25 mg/kg

SMILES: CCOc1cc(NCCNC(=O)/C=C/C(F)(F)F)ccn1 [Compound 4, (E)-N-[2-[(2-ethoxy-4-pyridyl)amino]ethyl]-4,4,4-trifluoro-but-2-enamide]
- Tlast (Form A50 (NMP, propylene glycol, water), SC, 1.25 mg/kg): 6.5 h
- Tlast (Form B62.5 (dimethyl acetamide, propylene glycol, water), SC, 1.25 mg/kg): 5.33 h
- AUC [1]: 372 ng·h/mL
- Cmax [1]: 428 ng/mL
- Tlast [1]: 4 h and 3 h
- Tmax [1]: 18.6 min
- Tlast (FormC62.5 (propylene glycol, ethanol, Transcutol P), SC, 1.25 mg/kg): 10.7 h
- Tlast (FormD62.5 (PEG 300, ethanol, Transcutol P), SC, 1.25 mg/kg): 4 h
- Tlast (FormE62.5 (polyethylene glycol 300, ethyl alcohol 96%, water), SC, 1.25 mg/kg): 5 h
- Tlast (FormF62.5 (polyethylene glycol, 1-octanol, 2-pyrrolidone), SC, 1.25 mg/kg): 8 h
- Tlast (FormG62.5 (benzyl alcohol, ethyl alcohol 96%, polyethylene glycol 300), SC, 1.25 mg/kg): 5.33 h
- Tlast (FormH62.5 (DMA, DMSO, 2-pyrrolidone), SC, 1.25 mg/kg): 4 h
- Tlast (FormJ62.5 (DMSO, 2-pyrrolidone, ethyl lactate), SC, 1.25 mg/kg): 4 h
- Tlast (FormK62.5 (2-pyrrolidone, Transcutol P, ethyl lactate), SC, 1.25 mg/kg): 4 h
- Tlast (FormL50 (DMA, propylene glycol, water), SC, 1.25 mg/kg): 4 h
- Tlast (FormM62.5 (L-tartaric acid, sodium hydroxide up to pH 4.6, water), SC, 1.25 mg/kg): 3.33 h
- Tlast (FormO60 (FormO type: L-tartaric acid, NaOH to pH 4.4, water), SC, 1 mg/kg): 2.67 h
- Tlast (FormP62.5 (L-tartaric acid, 2-pyrrolidone, NaOH, water), SC, 1.25 mg/kg): 6.67 h
- Tlast (FormQ62.5 (L-tartaric acid, sodium carboxymethyl cellulose, NaOH up to pH 4.3, water), SC, 1.25 mg/kg): 4 h
- Tlast (FormR50 (L-tartaric acid, 2-pyrrolidone, NaOH, water), SC, 1 mg/kg): 6.67 h
- Tlast (FormS50 (L-tartaric acid, sodium carboxymethyl cellulose, 2-pyrrolidone, NaOH, water), SC, 1 mg/kg): 8.67 h
- Tlast (FormT50 (DL-Lactic acid, hydrochloric acid up to pH 4.4, water), SC, 1 mg/kg): 3.67 h
- AUC (bovine, plasma, sc, 1 mg/kg, FormR50 (L-tartaric acid, 2-pyrrolidone, NaOH, water), 1 mg/kg, read-out: AUC): 248 ng·h/mL
- Cmax (bovine, plasma, sc, 1 mg/kg, FormR50 (L-tartaric acid, 2-pyrrolidone, NaOH, water), 1 mg/kg, read-out: Cmax): 59.4 ng/mL
- Tmax (bovine, plasma, sc, 1 mg/kg, FormR50 (L-tartaric acid, 2-pyrrolidone, NaOH, water), 1 mg/kg, read-out: Tmax): 60 min
- AUC (bovine, plasma, sc, 1 mg/kg, FormS50 (L-tartaric acid, sodium carboxymethyl cellulose, 2-pyrrolidone, NaOH, water), 1 mg/kg, read-out: AUC): 339 ng·h/mL
- Cmax (bovine, plasma, sc, 1 mg/kg, FormS50 (L-tartaric acid, sodium carboxymethyl cellulose, 2-pyrrolidone, NaOH, water), 1 mg/kg, read-out: Cmax): 69.3 ng/mL
- Tmax (bovine, plasma, sc, 1 mg/kg, FormS50 (L-tartaric acid, sodium carboxymethyl cellulose, 2-pyrrolidone, NaOH, water), 1 mg/kg, read-out: Tmax): 79.8 min
- AUC (bovine, plasma, sc, 1 mg/kg, pH 4.4, FormO60 (FormO type: L-tartaric acid, NaOH to pH 4.4, water), 1 mg/kg, read-out: AUC): 302 ng·h/mL
- Cmax (bovine, plasma, sc, 1 mg/kg, pH 4.4, FormO60 (FormO type: L-tartaric acid, NaOH to pH 4.4, water), 1 mg/kg, read-out: Cmax): 374 ng/mL
- Tmax (bovine, plasma, sc, 1 mg/kg, pH 4.4, FormO60 (FormO type: L-tartaric acid, NaOH to pH 4.4, water), 1 mg/kg, read-out: Tmax): 15 min
- AUC (bovine, plasma, sc, 1 mg/kg, pH 4.4, FormT50 (DL-Lactic acid, hydrochloric acid up to pH 4.4, water), 1 mg/kg, read-out: AUC): 293 ng·h/mL
- Cmax (bovine, plasma, sc, 1 mg/kg, pH 4.4, FormT50 (DL-Lactic acid, hydrochloric acid up to pH 4.4, water), 1 mg/kg, read-out: Cmax): 281 ng/mL
- Tmax (bovine, plasma, sc, 1 mg/kg, pH 4.4, FormT50 (DL-Lactic acid, hydrochloric acid up to pH 4.4, water), 1 mg/kg, read-out: Tmax): 25.2 min
- AUC (bovine, plasma, sc, 1.25 mg/kg, Form A50 (NMP, propylene glycol, water), 1.25 mg/kg, read-out: AUC): 204 ng·h/mL
- Cmax (bovine, plasma, sc, 1.25 mg/kg, Form A50 (NMP, propylene glycol, water), 1.25 mg/kg, read-out: Cmax): 127 ng/mL
- Tmax (bovine, plasma, sc, 1.25 mg/kg, Form A50 (NMP, propylene glycol, water), 1.25 mg/kg, read-out: Tmax): 26.4 min
- AUC (bovine, plasma, sc, 1.25 mg/kg, Form B62.5 (dimethyl acetamide, propylene glycol, water), 1.25 mg/kg, read-out: AUC): 98.2 ng·h/mL
- Cmax (bovine, plasma, sc, 1.25 mg/kg, Form B62.5 (dimethyl acetamide, propylene glycol, water), 1.25 mg/kg, read-out: Cmax): 37.4 ng/mL
- Tmax (bovine, plasma, sc, 1.25 mg/kg, Form B62.5 (dimethyl acetamide, propylene glycol, water), 1.25 mg/kg, read-out: Tmax): 30 min
- AUC (bovine, plasma, sc, 1.25 mg/kg, FormC62.5 (propylene glycol, ethanol, Transcutol P), 1.25 mg/kg, read-out: AUC): 130 ng·h/mL
- Cmax (bovine, plasma, sc, 1.25 mg/kg, FormC62.5 (propylene glycol, ethanol, Transcutol P), 1.25 mg/kg, read-out: Cmax): 46.4 ng/mL
- Tmax (bovine, plasma, sc, 1.25 mg/kg, FormC62.5 (propylene glycol, ethanol, Transcutol P), 1.25 mg/kg, read-out: Tmax): 39.6 min
- AUC (bovine, plasma, sc, 1.25 mg/kg, FormD62.5 (PEG 300, ethanol, Transcutol P), 1.25 mg/kg, read-out: AUC): 63.2 ng·h/mL
- Cmax (bovine, plasma, sc, 1.25 mg/kg, FormD62.5 (PEG 300, ethanol, Transcutol P), 1.25 mg/kg, read-out: Cmax): 25.4 ng/mL
- Tmax (bovine, plasma, sc, 1.25 mg/kg, FormD62.5 (PEG 300, ethanol, Transcutol P), 1.25 mg/kg, read-out: Tmax): 55.2 min
- AUC (bovine, plasma, sc, 1.25 mg/kg, FormE62.5 (polyethylene glycol 300, ethyl alcohol 96%, water), 1.25 mg/kg, read-out: AUC): 76.4 ng·h/mL
- Cmax (bovine, plasma, sc, 1.25 mg/kg, FormE62.5 (polyethylene glycol 300, ethyl alcohol 96%, water), 1.25 mg/kg, read-out: Cmax): 45.7 ng/mL
- Tmax (bovine, plasma, sc, 1.25 mg/kg, FormE62.5 (polyethylene glycol 300, ethyl alcohol 96%, water), 1.25 mg/kg, read-out: Tmax): 25.2 min
- AUC (bovine, plasma, sc, 1.25 mg/kg, FormF62.5 (polyethylene glycol, 1-octanol, 2-pyrrolidone), 1.25 mg/kg, read-out: AUC): 78.5 ng·h/mL
- Cmax (bovine, plasma, sc, 1.25 mg/kg, FormF62.5 (polyethylene glycol, 1-octanol, 2-pyrrolidone), 1.25 mg/kg, read-out: Cmax): 15.2 ng/mL
- Tmax (bovine, plasma, sc, 1.25 mg/kg, FormF62.5 (polyethylene glycol, 1-octanol, 2-pyrrolidone), 1.25 mg/kg, read-out: Tmax): 37.8 min
- AUC (bovine, plasma, sc, 1.25 mg/kg, FormG62.5 (benzyl alcohol, ethyl alcohol 96%, polyethylene glycol 300), 1.25 mg/kg, read-out: AUC): 44.8 ng·h/mL
- Cmax (bovine, plasma, sc, 1.25 mg/kg, FormG62.5 (benzyl alcohol, ethyl alcohol 96%, polyethylene glycol 300), 1.25 mg/kg, read-out: Cmax): 12.5 ng/mL
- Tmax (bovine, plasma, sc, 1.25 mg/kg, FormG62.5 (benzyl alcohol, ethyl alcohol 96%, polyethylene glycol 300), 1.25 mg/kg, read-out: Tmax): 140 min
- AUC (bovine, plasma, sc, 1.25 mg/kg, FormH62.5 (DMA, DMSO, 2-pyrrolidone), 1.25 mg/kg, read-out: AUC): 88.2 ng·h/mL
- Cmax (bovine, plasma, sc, 1.25 mg/kg, FormH62.5 (DMA, DMSO, 2-pyrrolidone), 1.25 mg/kg, read-out: Cmax): 42.1 ng/mL
- Tmax (bovine, plasma, sc, 1.25 mg/kg, FormH62.5 (DMA, DMSO, 2-pyrrolidone), 1.25 mg/kg, read-out: Tmax): 40.2 min
- AUC (bovine, plasma, sc, 1.25 mg/kg, FormK62.5 (2-pyrrolidone, Transcutol P, ethyl lactate), 1.25 mg/kg, read-out: AUC): 86 ng·h/mL
- Cmax (bovine, plasma, sc, 1.25 mg/kg, FormK62.5 (2-pyrrolidone, Transcutol P, ethyl lactate), 1.25 mg/kg, read-out: Cmax): 29.9 ng/mL
